A word on the EC50: it is the concentration giving half of the maximal effect. Lower therefore signals an effect from little substance.

From patent US12281119B2, “Imidazo[2,1-f][1,2,4]triazin-4-amine derivatives as TLR7 agonist” (BEIGENE, LTD., priority 2019, dated 2025) come the findings set out here.

Where only a bound is given, the exact number is not on record here.

Holding throughout (type): cell-based
Experiment [1] addresses T1, human TLR7 (Homo sapiens, UniProt Q9NYK1).
T1 sequence (Q9NYK1 27-1049): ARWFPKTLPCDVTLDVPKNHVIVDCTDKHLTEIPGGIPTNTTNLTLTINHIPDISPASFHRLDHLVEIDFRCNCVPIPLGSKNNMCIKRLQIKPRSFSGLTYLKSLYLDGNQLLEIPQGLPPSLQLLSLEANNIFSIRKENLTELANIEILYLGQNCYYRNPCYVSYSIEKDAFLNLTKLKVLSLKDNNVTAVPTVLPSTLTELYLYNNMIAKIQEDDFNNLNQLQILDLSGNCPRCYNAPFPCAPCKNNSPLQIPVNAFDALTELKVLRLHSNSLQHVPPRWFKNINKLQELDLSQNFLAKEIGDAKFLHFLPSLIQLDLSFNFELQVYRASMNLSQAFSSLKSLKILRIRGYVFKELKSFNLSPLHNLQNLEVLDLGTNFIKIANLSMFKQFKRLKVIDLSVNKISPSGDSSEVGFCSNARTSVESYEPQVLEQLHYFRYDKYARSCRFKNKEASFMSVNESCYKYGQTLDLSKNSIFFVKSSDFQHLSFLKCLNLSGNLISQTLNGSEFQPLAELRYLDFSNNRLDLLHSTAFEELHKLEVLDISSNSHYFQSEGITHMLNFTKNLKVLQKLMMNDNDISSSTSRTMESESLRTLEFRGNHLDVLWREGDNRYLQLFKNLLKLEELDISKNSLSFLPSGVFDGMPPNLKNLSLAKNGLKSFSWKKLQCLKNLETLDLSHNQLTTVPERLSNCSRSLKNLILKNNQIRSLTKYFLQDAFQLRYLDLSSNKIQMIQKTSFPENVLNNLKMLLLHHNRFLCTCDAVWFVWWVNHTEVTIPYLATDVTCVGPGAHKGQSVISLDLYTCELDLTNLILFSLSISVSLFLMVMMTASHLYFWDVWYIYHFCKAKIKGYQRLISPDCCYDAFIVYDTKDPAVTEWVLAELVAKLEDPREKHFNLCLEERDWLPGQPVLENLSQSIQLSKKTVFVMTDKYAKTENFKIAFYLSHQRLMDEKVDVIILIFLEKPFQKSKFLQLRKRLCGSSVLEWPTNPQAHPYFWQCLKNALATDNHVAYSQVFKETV
The experiment in a line: TLR7 stimulation determined using HEK-Blue Detection. Set-up: expressed in transfected cells; host or cells: HEK293 (HEK-Blue hTLR7). Conditions: HEK-Blue hTLR7 cells, HEK-Blue Detection (A77-A124), 16 hr, relative to Resiquimod maximum. The source says:
TLR7 Stimulation Determined Using HEK-Blue Detection
This assay was designed for studying the stimulation of human TLR7 protein in HELK-Blue hTLR7 tool cell line by monitoring the activation of NF-κB. HEK-Blue hTLR7 cells were obtained by co-transfection of the hTLR7 gene and an optimized secreted embryonic alkaline phosphatase (SLAP) reporter gene into HEK293 cells. The SLAP reporter gene was placed under the control of the IFN-β minimal promoter fused to five NF-κB and AP-1-binding sites. Stimulation with a TLR7 ligand activates NF-κB and AP-1 which induce the expression of SLAP. Levels of SLAP can be easily determined with HEK-Blue Detection, a cell culture medium that allows for real-time detection of SLAP. HLK-Blue Detection contains all the nutrients necessary for cell growth and a specific SLAP color substrate. The hydrolysis of the substrate by SLAP produces a purple/blue color that can be measured with a spectrophotometer.
When growing to 50-80%0 confluency, HLK-Blue hTLR7 cells were plated into 96-well plate (costar 3599) at a density of 40000 cells/well. Then compounds were added with serial dilutions over 10 points with a 0.04 nM-10 μM final concentration range in 0.1% DMSO/BLK-Blue Detection. The plates were then incubated for 16 hr at 37° C. in […] and vortex for 30s before measurement. The optical density at 620-655 nm was read on BMG PHLRAstar FSX instrument. The EC50 for each compound was determined by calculating the percentages of the maximum activation identified with Resiquimod.

The next experiment deals with T2, human TLR 8 protein (Homo sapiens, UniProt Q9NR97).
T2 construct: expressed in transfected cells; host or cells: HEK293 (HEK-Blue hTLR8)
T2 sequence (Q9NR97 27-1041): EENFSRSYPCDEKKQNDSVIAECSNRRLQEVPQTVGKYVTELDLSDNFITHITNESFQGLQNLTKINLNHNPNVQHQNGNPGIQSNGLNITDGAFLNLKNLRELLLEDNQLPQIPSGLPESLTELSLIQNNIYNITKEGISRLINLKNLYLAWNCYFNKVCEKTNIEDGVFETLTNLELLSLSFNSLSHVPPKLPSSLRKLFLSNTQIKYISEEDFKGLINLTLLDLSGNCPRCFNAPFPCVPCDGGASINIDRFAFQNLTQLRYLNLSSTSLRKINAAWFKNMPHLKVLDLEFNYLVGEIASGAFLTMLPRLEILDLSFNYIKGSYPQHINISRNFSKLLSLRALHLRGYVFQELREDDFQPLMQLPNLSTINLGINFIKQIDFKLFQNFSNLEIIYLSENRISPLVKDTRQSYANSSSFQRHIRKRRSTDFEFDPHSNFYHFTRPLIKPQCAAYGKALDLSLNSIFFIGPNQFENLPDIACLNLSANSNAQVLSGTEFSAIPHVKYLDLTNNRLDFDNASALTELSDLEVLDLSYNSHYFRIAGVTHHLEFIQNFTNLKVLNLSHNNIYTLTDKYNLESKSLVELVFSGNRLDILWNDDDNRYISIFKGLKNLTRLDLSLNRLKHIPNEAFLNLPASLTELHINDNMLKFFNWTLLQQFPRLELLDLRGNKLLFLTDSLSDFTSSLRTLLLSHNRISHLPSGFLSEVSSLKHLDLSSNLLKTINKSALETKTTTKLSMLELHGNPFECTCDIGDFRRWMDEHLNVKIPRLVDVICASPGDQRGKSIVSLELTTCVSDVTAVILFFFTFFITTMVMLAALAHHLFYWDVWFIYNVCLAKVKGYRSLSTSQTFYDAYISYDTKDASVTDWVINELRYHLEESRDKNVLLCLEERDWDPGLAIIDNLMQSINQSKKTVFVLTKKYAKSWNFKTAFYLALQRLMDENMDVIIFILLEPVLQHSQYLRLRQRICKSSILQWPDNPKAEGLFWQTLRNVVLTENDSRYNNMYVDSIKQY
The experiment in a line: TLR8 stimulation determined using HEK-Blue Detection. The conditions noted are these: HEK-Blue hTLR8 cells, 16 hr, relative to Resiquimod or Motolimod maximum. The source says:
TLR8 Stimulation Determined Using HEK-Blue Detection
This assay was designed for studying the stimulation of human TLR 8 protein in HEK-Blue hTLR8 tool cell line by monitoring the activation of NF-1B. HEK-Blue hTLR8 cells were obtained by co-transfection of the hTLR8 gene and an optimized secreted embryonic alkaline phosphatase (SEAP) reporter gene into HEK293 cells. The SEAP reporter gene was placed under the control of the IFN-β minimal promoter fused to five NF-κB and AP-1-binding sites. Stimulation with a TLR 8 ligand activates NF-κB and AP-1 which induce the expression of SEAP. Levels of SEAP can be easily determined with HEK-Blue Detection, a cell culture medium that allows for real-time detection of SEAP. HEK-Blue Detection contains all the nutrients necessary for cell growth and a specific SEAP color substrate. The hydrolysis of the substrate by SEAP produces a purple/blue color that can be measured with a spectrophotometer.
When growing to 50-80% confluency, HEK-Blue hTLR7/8 cells were plated into 96-well plate (costar 3599) at a density of 40000 cells/well. Then compounds were added with serial dilutions over 10 points with a 1 nM-10 uM final concentration range in 0.1% DMSO/HEK-Blue Detection. The plates were then incubated for 16 hr at 37° C. in 5% CO2. The optical density at 620-655 nm was read on BMG PHERAstar FSX instrument. The EC50 for each compound was determined by calculating the percentages of the maximum activation identified with Resiquimod or Motolimod.

Experiment [2] has as its target T1, human TLR7. The experiment in a line: HEK293-Blue hTLR7 reporter assay (QUANTI-BLUE, SEAP readout). Set-up: host or cells: HEK293 (HEK-Blue-hTLR7). Conditions: HEK-Blue-hTLR7 cells, 24 hrs. The method in brief: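 Cells seeded at 4×10^4 per well in DMEM/10% heat-inactivated FBS, settled 5 h, then exposed to increasing compound amounts for 24 h at 37° C. Secreted SEAP in supernatant read with Quanti-blue at 620-655 nm after 10-30 min at 37° C.; EC50 from sigmoidal dose-response fit.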
(Reporter assays use an easily measured gene product as a stand-in for the process of interest.)

As for `CCCC(CCO)Oc1nc(N)c2ncc(Cc3ccc(OCCNC)nc3)n2n1` (single isomer, unassigned) [Compound A81, (R or S) 3-((4-amino-7-((6-(2-(methylamino)ethoxy)pyridin-3-yl)methyl)imidazo[2,1-f][1,2,4]triazin-2-yl)oxy)hexan-1-ol], the results for the half-maximal effective concentration (EC50) on human TLR7 [1] and on human TLR 8 protein were 310 nM and 6250 nM, respectively. Regarding `CCCC(CCO)Oc1nc(N)c2ncc(Cc3ccc(OCCNC)nc3)n2n1` (single isomer, unassigned) [Compound A82, (S or R) 3-((4-amino-7-((6-(2-(methylamino)ethoxy)pyridin-3-yl)methyl)imidazo[2,1-f][1,2,4]triazin-2-yl)oxy)hexan-1-ol], the EC50 on human TLR7 [1] stood at 5 nM; at human TLR 8 protein it was 22 nM. In the case of `CCCC(CCO)Oc1nc(N)c2ncc(Cc3ccc(OCCNC)cc3)n2n1` (single isomer, unassigned) [Compound A92, (R or S) 3-((4-amino-7-(4-(2-(methylamino)ethoxy)benzyl)imidazo[2,1-f][1,2,4]triazin-2-yl)oxy)hexan-1-ol], the 50% effective concentration (EC50) at human TLR7 [1] came to 122 nM; at human TLR 8 protein, 872 nM.

As to `CCCC(CCO)Oc1nc(N)c2ncc(Cc3ccc(OCCNC)cc3)n2n1` (single isomer, unassigned) [Compound A93, (S or R) 3-((4-amino-7-(4-(2-(methylamino)ethoxy)benzyl)imidazo[2,1-f][1,2,4]triazin-2-yl)oxy)hexan-1-ol], the EC50 on human TLR7 [1] came to 1.7 nM; at human TLR 8 protein it was 13.5 nM.

Turning to `CCCC(CCO)Oc1nc(N)c2ncc(Cc3ccc(OCCNC)cc3OC)n2n1` (single isomer, unassigned) [Compound A101, (R or S)-3-((4-amino-7-(2-methoxy-4-(2-(methylamino)ethoxy)benzyl)imidazo[2,1-f][1,2,4]triazin-2-yl)oxy)hexan-1-ol], the EC50 on human TLR7 [1] turned out to be 0.78 nM; on human TLR 8 protein, 8.6 nM. The corresponding values for `CCCC(CCO)Oc1nc(N)c2ncc(Cc3ccc(OCCNC)c(C)c3)n2n1` (single isomer, unassigned) [Compound A103, (R or S)-3-((4-amino-7-(3-methyl-4-(2-(methylamino)ethoxy)benzyl)imidazo[2,1-f][1,2,4]triazin-2-yl)oxy)hexan-1-ol] are 2.4 nM and 47 nM. For `CCCCOc1nc(N)c2ncc(Cc3ccc4c(c3)CCN(C(C)C)C4)n2n1` [Compound A8, 2-butoxy-7-((2-isopropyl-1,2,3,4-tetrahydroisoquinolin-6-yl)methyl)imidazo[2,1-f][1,2,4]triazin-4-amine], the half-maximal effective concentration (EC50) on human TLR7 [2] (QUANTI-BLUE assay (A1-A76)) was 3030 nM; at human TLR 8 protein, 187 nM. The corresponding values for `CCCCOc1nc(N)c2ncc(Cc3ccc(CN4CCNCC4)cc3)n2n1` [Compound A10, 2-butoxy-7-(4-(piperazin-1-ylmethyl)benzyl)imidazo[2,1-f][1,2,4]triazin-4-amine] are 1170 nM and 572 nM. The corresponding values for `CCCCOc1nc(N)c2ncc(Cc3ccc(CN4CCC(N)CC4)cc3)n2n1` [Compound A43, 7-(4-((4-aminopiperidin-1-yl)methyl)benzyl)-2-butoxyimidazo[2,1-f][1,2,4]triazin-4-amine] are 822 nM and 255 nM. For the compound `CCCCOc1nc(N)c2ncc(Cc3ccc(OCCNC)nc3)n2n1` [Compound A58, 2-butoxy-7-((6-(2-(methylamino)ethoxy)pyridin-3-yl)methyl)imidazo[2,1-f][1,2,4]triazin-4-amine], the EC50 on human TLR7 [2] (QUANTI-BLUE assay (A1-A76)) amounted to 246 nM; at human TLR 8 protein it was 183 nM. Take `CCCCOc1cc2c(Cc3cnc(N4CCNCC4)c(Cl)c3)cnn2c(N)n1` [Compound C3, 5-butoxy-3-((5-chloro-6-(piperazin-1-yl)pyridin-3-yl)methyl)pyrazolo[1,5-c]pyrimidin-7-amine]: at human TLR7 [2] (QUANTI-BLUE assay (C1-C6)), the EC50 was above 10000 nM. Same read-out and setting: for `CCCCOc1cc(N)c2ncc(Cc3cnc(N4CCNCC4)c(C)c3)n2n1` [Compound C5, 6-butoxy-3-((5-methyl-6-(piperazin-1-yl)pyridin-3-yl)methyl)imidazo[1,2-b]pyridazin-8-amine] the value was above 10000 nM. `CCCCOc1nc(N)c2[nH]cc(Cc3cnc(N4CCNCC4)c(C)c3)c2n1` [Compound C6, 2-butoxy-7-((5-methyl-6-(piperazin-1-yl)pyridin-3-yl)methyl)-5H-pyrrolo [3,2-d]pyrimidin-4-amine] gave a concentration for a half-maximal effect (EC50) at human TLR7 [2] (QUANTI-BLUE assay (C1-C6)) of 1080 nM.
